This is an account of results in paper PMC8571052 (ChemMedChem, 2021).

Assay type in all cases: cell-based, human
In assay [1] the test system is MDA-MB-231. Description: Cell cycle profile. As to conditions: MDA-MB-231, IC20 concentration, 24 h; non-treated cells 16%.
For assay [2], the system named is MDA-MB-231. Put plainly: PrestoBlue cell viability assay, MDA-MB-231. As to conditions: for IC50: MDA-MB-231, 24 h incubation, PrestoBlue.
In assay [3] the test system is IMR90. Description: PrestoBlue cell viability assay, lung fibroblasts IMR90. As to conditions: IMR90, 24 h incubation.
Assay [4] has as its system HUVEC. Put plainly: Endothelial tube formation assay. Conditions: IC10 concentration.
The subject of assay [5] is HCC-1806. Description: PrestoBlue cell viability assay, HCC-1806. Conditions: for IC50: HCC-1806, 24 h incubation, PrestoBlue.
Assay [6] deals with MCF10a. Description: PrestoBlue cell viability assay, non-malignant breast cells MCF10a. As to conditions: 24 h incubation.
Assay [7] deals with HCC-1806. Put plainly: Cell death assay. Conditions: HCC-1806, IC50 concentration, 24 h, Annexin V/PI.
Assay [8] concerns HCC-1806. Description: Cell migration, 2D wound-healing scratch assay, HCC-1806. Conditions: 24 h.
In assay [9] the test system is MDA-MB-231. Description: Cell invasion, 3D Transwell assay with Geltrex matrix, MDA-MB-231. As to conditions: MDA-MB-231, IC20 concentration, 24 h.
The test system of assay [10] is MDA-MB-468. Description: PrestoBlue cell viability assay, MDA-MB-468. As to conditions: MDA-MB-468, 24 h incubation.
The test system of assay [11] is HCC-1806. Put plainly: Cell invasion, 3D Transwell assay with Geltrex matrix, HCC-1806. As to conditions: 24 h.
Assay [12] concerns HUVEC. Description: IC10 concentration in HUVEC cells.
In assay [13] the test system is MDA-MB-231. Description: Cell death assay. As to conditions: MDA-MB-231, IC50 concentration, 24 h, Annexin V/PI.

Where only a bound is given, the exact number is not on record here.

Consider `Cc1ccc(C(C)C)cc1.[Cl][Ru]([Cl])[PH]12CN3CN(CN(C3)C1)C2` [RAPTA-C, [Ru(η^6-p-cymene)Cl2(1,3,5-triaza-7-phosphaadamantane])], for which, in assay [1], the “cells in G2/M arrest” value is on record as 23%. The IC50 in assay [2], in assay [3], in assay [5], in [6] and in assay [10] was greater than 300 µM each time. Moreover, the IC20 in [2] (read-out: IC20 values employed, MDA-MB-231 (same value for both cell lines)) stood at 250 µM; in assay [5] (read-out: IC20 values employed, HCC-1806 (same value for both cell lines)) it was 250 µM. Further, the “disruption in tube length (TL)” value in assay [4] was found to be 22%. The “disruption of tube length (first statement)” value in assay [4] stood at 27%. The apoptosis in assay [7] was 27.25%. In assay [8] (HCC-1806, IC20 concentration), the reduction of migration was found to be 42.7%. Moreover, in [8] (IC20 concentration), the “decrease in antimigratory properties in HCC-1806 with respect to MDA-MB-231” value is “ca. 17.6%”. Besides, the invasion reduction in assay [9] was determined as 66.9%; in [11] (HCC-1806, IC20 concentration), 41.2%. Besides, the “reduction of the antiinvasive properties in HCC-1806 with respect to MDA-MB-231” value in assay [11] (IC20 concentration) came to 25.7%. In assay [12], this molecule gave an IC10 concentration of 150 µM. Moreover, in assay [13], the “cells that die by apoptosis” value came out at 30.8%.

Regarding `N.N.[Cl][Pt][Cl]` [cisplatin], the IC50 in [2] was found to be 132 ± 18 µM; in assay [3], 149 ± 13.1 µM; in assay [5], 163 ± 5.86 µM; in [6], 32.9 ± 6.68 µM; in assay [10], 44.2 ± 2.1 µM.
